Test results published in patent publication US20230077362A1 (CORTEVA AGRISCIENCE LLC, priority 2019, published 2023).

Experiments:
Type in all cases: in vivo
[1] = test system: Green Peach Aphid ("GPA") (Myzus persicae), wingless adult and nymph stages; assay: Bioassay on green peach aphid (GPA), foliar spray on infested cabbage seedlings; conditions: Myzus persicae, foliar, 72 h, read-out: GPA (Biological Results, rating)
Method: Certain molecules disclosed in this document were tested against GPA using procedures described in the following example. In the reporting of the results, the “GPA Rating Table” was used (See Table Section).
Cabbage seedlings grown in 3-inch pots, with 2-3 small (3-5 cm) true leaves, were used as test substrate. The seedlings were infested with 20-50 GPA (wingless adult and nymph stages) one day prior to chemical application. Four pots with individual seedlings were used for each treatment. Test compounds (2 mg) were dissolved in 2 mL of acetone/methanol (1:1) solvent, forming stock solutions of 1000 ppm test compound. […] A hand-held aspirator-type sprayer was used for spraying a solution to both sides of […] leaves until runoff. Reference plants (solvent check) were sprayed with the diluent only containing 20% by volume of acetone/methanol (1:1) solvent. Treated plants were held in a holding room for three days at approximately 25° C. and ambient relative humidity (RH) prior to grading. Evaluation was conducted by counting the number of live aphids per plant under a microscope.
Corrected % Control=100*(X−Y)/X • where • X=No. of live aphids on solvent check plants and • Y=No. of live aphids on treated plants
The results are indicated in the table entitled “Table ABC: Biological Results” (See Table Section).

[2] = test system: Cabbage Looper (Trichoplusia ni) ("CL"), second instar larvae; assay: Bioassay on cabbage looper (CL), 128-well diet tray assay; conditions: Trichoplusia ni, read-out: CL (Biological Results, rating)
Procedure, shortened: (§1)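 After sealing with a clear self-adhesive lid, the trays are incubated at 25° C. with 14 h light and 10 h dark for 5 to 7 days; mortality in each well is recorded as a percentage and averaged across the eight wells.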

[3] = test system: Beet Armyworm (Spodoptera exigua) ("BAW"), second instar larvae; assay: Bioassay on beet armyworm (BAW), 128-well diet tray assay; conditions: Spodoptera exigua, read-out: BAW (Biological Results, rating)
Procedure, shortened: as §1

Row | Compound | pest or weed control at 200 µg/mL [1] | pest or weed control at 50 µg/cm2 [2] | pest or weed control at 50 µg/cm2 [3]
1 | Cc1cc(-c2ncn(-c3ccc(OC(F)(F)F)cc3)n2)ccc1NC(=O)/N=C1\SCC(=O)N1c1ccc(N(C)C)cc1C(C)C [Compound J113, (Z)-1-(3-(4-(Dimethylamino)-2-isopropylphenyl)-4-oxothiazolidin-2-ylidene)-3-(2-methyl-4-(1-(4-(trifluoromethoxy)phenyl)-1H-1,2,4-triazol-3-yl)phenyl)urea] | 0 to 80% | 50 to 100% | 50 to 100%
2 | CC(C)c1ccc(N(C)C)cc1N1C(=O)CS/C1=N\C(=O)Nc1ccc(-c2ncn(-c3ccc(OC(F)(F)F)cc3)n2)cc1C(F)(F)F [Compound J116, (Z)-1-(3-(5-(Dimethylamino)-2-isopropylphenyl)-4-oxothiazolidin-2-ylidene)-3-(4-(1-(4-(trifluoromethoxy)phenyl)-1H-1,2,4-triazol-3-yl)-2-(trifluoromethyl)phenyl)urea] | 0 to 80% | 50 to 100% | 50 to 100%
3 | COC(C)c1ccc(C)cc1N1C(=O)CS/C1=N\C(=O)Nc1ccc(-c2ncn(-c3cccc(C(F)(F)F)c3)n2)cc1F (stereo not drawn) [Compound J119, (Z)-1-(2-Fluoro-4-(1-(3-(trifluoromethyl)phenyl)-1H-1,2,4-triazol-3-yl)phenyl)-3-(3-(2-(1-methoxyethyl)-5-methylphenyl)-4-oxothiazolidin-2-ylidene)urea] | 0 to 80% | 50 to 100% | 50 to 100%
4 | COC(C)c1ccc(C)cc1N1C(=O)CS/C1=N\C(=O)Nc1ccc(-c2ncn(-c3cccc(OC(F)(F)F)c3)n2)cc1F (stereo not drawn) [Compound J120, (Z)-1-(2-Fluoro-4-(1-(3-(trifluoromethoxy)phenyl)-1H-1,2,4-triazol-3-yl)phenyl)-3-(3-(2-(1-methoxyethyl)-5-methylphenyl)-4-oxothiazolidin-2-ylidene)urea] | 0 to 80% | 50 to 100% | 50 to 100%
5 | Cc1ccc(OCC(F)(F)F)c(N2C(=O)CS/C2=N\C(=O)Nc2ccc(-c3ncn(-c4cccc(C(F)(F)F)c4)n3)cc2F)c1 [Compound J122, (Z)-1-(2-Fluoro-4-(1-(3-(trifluoromethyl)phenyl)-1H-1,2,4-triazol-3-yl)phenyl)-3-(3-(5-methyl-2-(2,2,2-trifluoroethoxy)phenyl)-4-oxothiazolidin-2-ylidene)urea] | 0 to 80% | 50 to 100% | 50 to 100%
6 | Cc1ccc(COCC(F)(F)F)c(N2C(=O)CS/C2=N\C(=O)Nc2ccc(-c3ncn(-c4ccc(OC(F)(F)F)cc4)n3)cc2F)c1 [Compound J123, (Z)-1-(2-fluoro-4-(1-(4-(trifluoromethoxy)phenyl)-1H-1,2,4-triazol-3-yl)phenyl)-3-(3-(5-methyl-2-((2,2,2-trifluoroethoxy)methyl)phenyl)-4-oxothiazolidin-2-ylidene)urea] | 0 to 80% | 50 to 100% | 50 to 100%
7 | CNc1ccc(C(C)C)c(N2C(=O)CS/C2=N\C(=O)Nc2ccc(-c3ncn(-c4ccc(OC(F)(F)F)cc4)n3)cc2C)c1 [Compound J126, (Z)-1-(3-(2-Isopropyl-5-(methylamino)phenyl)-4-oxothiazolidin-2-ylidene)-3-(2-methyl-4-(1-(4-(trifluoromethoxy)phenyl)-1H-1,2,4-triazol-3-yl)phenyl)urea] | 0 to 80% | 50 to 100% | 50 to 100%
8 | CCNc1ccc(C(C)C)c(N2C(=O)CS/C2=N\C(=O)Nc2ccc(-c3ncn(-c4ccc(OC(F)(F)F)cc4)n3)cc2C)c1 [Compound J127, (Z)-1-(3-(5-(Ethylamino)-2-isopropylphenyl)-4-oxothiazolidin-2-ylidene)-3-(2-methyl-4-(1-(4-(trifluoromethoxy)phenyl)-1H-1,2,4-triazol-3-yl)phenyl)urea] | 0 to 80% | 50 to 100% | 50 to 100%
9 | COc1ccc(C(C)C)c(N2C(=O)CS/C2=N\C(=O)Nc2ccc(-c3ncn(-c4cccc(C(F)(F)F)c4)n3)cc2C)c1 [Compound J132, (Z)-1-(3-(2-Isopropyl-5-methoxyphenyl)-4-oxothiazolidin-2-ylidene)-3-(2-methyl-4-(1-(3-(trifluoromethyl)phenyl)-1H-1,2,4-triazol-3-yl)phenyl)urea] | 0 to 80% | 50 to 100% | 50 to 100%
10 | Cc1cc(-c2ncn(-c3cccc(C(F)(F)F)c3)n2)ccc1NC(=O)/N=C1\SCC(=O)N1c1cc(N(C)C)ccc1C(C)C [Compound J133, (Z)-1-(3-(5-(Dimethylamino)-2-isopropylphenyl)-4-oxothiazolidin-2-ylidene)-3-(2-methyl-4-(1-(3-(trifluoromethyl)phenyl)-1H-1,2,4-triazol-3-yl)phenyl)urea] | 0 to 80% | 50 to 100% | 50 to 100%
11 | Cc1ccc(OCCC(F)(F)F)c(N2C(=O)CS/C2=N\C(=O)Nc2ccc(-c3ncn(-c4cccc(C(F)(F)F)c4)n3)cc2C)c1 [Compound J134, (Z)-1-(3-(5-Methyl-2-(3,3,3-trifluoropropoxy)phenyl)-4-oxothiazolidin-2-ylidene)-3-(2-methyl-4-(1-(3-(trifluoromethyl)phenyl)-1H-1,2,4-triazol-3-yl)phenyl)urea] | 0 to 80% | 50 to 100% | 50 to 100%
12 | Cc1ccc(C(C)C)c(N2C(=O)CS/C2=N\C(=O)Nc2ccc(-c3ncn(-c4cccc(OC(F)(F)F)c4)n3)cc2C)c1 [Compound J135, (Z)-1-(3-(2-Isopropyl-5-methylphenyl)-4-oxothiazolidin-2-ylidene)-3-(2-methyl-4-(1-(3-(trifluoromethoxy)phenyl)-1H-1,2,4-triazol-3-yl)phenyl)urea] | 0 to 80% | 50 to 100% | 50 to 100%
13 | COc1ccc(C(C)C)c(N2C(=O)CS/C2=N\C(=O)Nc2ccc(-c3ncn(-c4cccc(OC(F)(F)F)c4)n3)cc2C)c1 [Compound J136, (Z)-1-(3-(2-Isopropyl-5-methoxyphenyl)-4-oxothiazolidin-2-ylidene)-3-(2-methyl-4-(1-(3-(trifluoromethoxy)phenyl)-1H-1,2,4-triazol-3-yl)phenyl)urea] | 0 to 80% | 50 to 100% | 50 to 100%
14 | Cc1cc(-c2ncn(-c3cccc(OC(F)(F)F)c3)n2)ccc1NC(=O)/N=C1\SCC(=O)N1c1cc(N(C)C)ccc1C(C)C [Compound J137, (Z)-1-(3-(5-(Dimethylamino)-2-isopropylphenyl)-4-oxothiazolidin-2-ylidene)-3-(2-methyl-4-(1-(3-(trifluoromethoxy)phenyl)-1H-1,2,4-triazol-3-yl)phenyl)urea] | 0 to 80% | 50 to 100% | 50 to 100%
15 | Cc1ccc(OCCC(F)(F)F)c(N2C(=O)CS/C2=N\C(=O)Nc2ccc(-c3ncn(-c4cccc(OC(F)(F)F)c4)n3)cc2C)c1 [Compound J138, (Z)-1-(3-(5-Methyl-2-(3,3,3-trifluoropropoxy)phenyl)-4-oxothiazolidin-2-ylidene)-3-(2-methyl-4-(1-(3-(trifluoromethoxy)phenyl)-1H-1,2,4-triazol-3-yl)phenyl)urea] | 0 to 80% | 50 to 100% | 50 to 100%
16 | Cc1ccc(COCC(F)(F)F)c(N2C(=O)CS/C2=N\C(=O)Nc2ccc(-c3ncn(-c4ccc(OC(F)(F)F)cc4)n3)cc2C)c1 [Compound J139, (Z)-1-(3-(5-Methyl-2-((2,2,2-trifluoroethoxy)methyl)phenyl)-4-oxothiazolidin-2-ylidene)-3-(2-methyl-4-(1-(4-(trifluoromethoxy)phenyl)-1H-1,2,4-triazol-3-yl)phenyl)urea] | 0 to 80% | 50 to 100% | 50 to 100%
17 | CCOC(C)c1ccc(C)cc1N1C(=O)CS/C1=N\C(=O)Nc1ccc(-c2ncn(-c3ccc(OC(F)(F)F)cc3)n2)cc1C (stereo not drawn) [Compound J141, (Z)-1-(3-(2-(1-Ethoxyethyl)-5-methylphenyl)-4-oxothiazolidin-2-ylidene)-3-(2-methyl-4-(1-(4-(trifluoromethoxy)phenyl)-1H-1,2,4-triazol-3-yl)phenyl)urea] | 0 to 80% | 50 to 100% | 50 to 100%
18 | Cc1ccc(OCCC(F)(F)F)c(N2C(=O)CS/C2=N\C(=O)Nc2ccc(-c3ncn(-c4cccc(C(F)(F)F)c4)n3)cc2F)c1 [Compound J142, (Z)-1-(2-Fluoro-4-(1-(3-(trifluoromethyl)phenyl)-1H-1,2,4-triazol-3-yl)phenyl)-3-(3-(5-methyl-2-(3,3,3-trifluoropropoxy)phenyl)-4-oxothiazolidin-2-ylidene)urea] | 0 to 80% | 50 to 100% | 50 to 100%
